Experimental data reported in the kinase profiling compilation of Christmann-Franck et al. (2016).
pIC50, pKd: −log10 of the molar value.

Assays:
[1] = molecular target: ACVRL1 (human) (UniProt P37023); experiment: KINOMEscan competition binding; conditions: compound 10.0 µM
[2] = molecular target: ALK (human) (UniProt Q9UM73); experiment: KINOMEscan competition binding; conditions: compound 10.0 µM
[3] = molecular target: AXL (human) (UniProt P30530); experiment: KINOMEscan competition binding; conditions: compound 10.0 µM
[4] = molecular target: BMPR2 (human) (UniProt Q13873); experiment: KINOMEscan competition binding; conditions: compound 10.0 µM
[5] = molecular target: CAMK2A (human) (UniProt Q9UQM7); experiment: KINOMEscan competition binding; conditions: compound 10.0 µM
[6] = molecular target: DYRK1A (human) (UniProt Q13627); experiment: KINOMEscan competition binding
[7] = molecular target: DYRK2 (human) (UniProt Q92630); experiment: KINOMEscan competition binding
[8] = molecular target: HIPK2 (human) (UniProt Q9H2X6); experiment: KINOMEscan competition binding
[9] = molecular target: IKBKE (human) (UniProt Q14164); experiment: KINOMEscan competition binding; conditions: compound 10.0 µM
[10] = molecular target: INSRR (human) (UniProt P14616); experiment: KINOMEscan competition binding; conditions: compound 10.0 µM
[11] = molecular target: LIMK1 (human) (UniProt P53667); experiment: KINOMEscan competition binding; conditions: compound 10.0 µM
[12] = molecular target: MAP2K2 (human) (UniProt P36507); experiment: KINOMEscan competition binding; conditions: compound 10.0 µM
[13] = molecular target: MAP4K3 (human) (UniProt Q8IVH8); experiment: KINOMEscan competition binding; conditions: compound 10.0 µM
[14] = molecular target: MYO3A (human) (UniProt Q8NEV4); experiment: KINOMEscan competition binding; conditions: compound 10.0 µM
[15] = molecular target: PAK1 (human) (UniProt Q13153); experiment: KINOMEscan competition binding; conditions: compound 10.0 µM
[16] = molecular target: STK3 (human) (UniProt Q13188); experiment: KINOMEscan competition binding; conditions: compound 10.0 µM
[17] = molecular target: ULK1 (human) (UniProt O75385); experiment: KINOMEscan competition binding; conditions: compound 10.0 µM
[18] = molecular target: HIPK1 (human) (UniProt Q86Z02); experiment: SelectScreen, TR FRET
[19] = molecular target: HIPK2 (human) (UniProt Q9H2X6); experiment: SelectScreen, TR FRET
[20] = molecular target: PIM1 (human) (UniProt P11309); experiment: SelectScreen, TR FRET
[21] = molecular target: PIM2 (human) (UniProt Q9P1W9); experiment: SelectScreen, TR FRET
[22] = molecular target: BRAF (human) (UniProt P15056); experiment: KINOMEscan competition binding; conditions: compound 10.0 µM
[23] = tested on: BRAF (human), P15056 [V600E]; experiment: KINOMEscan competition binding; conditions: compound 10.0 µM
[24] = molecular target: AURKB (human) (UniProt Q96GD4); experiment: SelectScreen, TR FRET
[25] = molecular target: AURKC (human) (UniProt Q9UQB9); experiment: SelectScreen, TR FRET

PIM2 (human), sequence (Q9P1W9 whole entry, looked up): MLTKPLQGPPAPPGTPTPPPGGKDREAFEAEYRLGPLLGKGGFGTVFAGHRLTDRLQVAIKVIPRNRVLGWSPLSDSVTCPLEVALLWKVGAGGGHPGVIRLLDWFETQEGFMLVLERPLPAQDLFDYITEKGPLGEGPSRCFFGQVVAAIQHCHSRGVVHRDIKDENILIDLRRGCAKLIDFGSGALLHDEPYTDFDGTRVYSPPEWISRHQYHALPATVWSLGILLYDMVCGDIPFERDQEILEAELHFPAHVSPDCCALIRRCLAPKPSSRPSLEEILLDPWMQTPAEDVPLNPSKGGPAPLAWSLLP
HIPK1 (human), sequence (Q86Z02 whole entry, looked up): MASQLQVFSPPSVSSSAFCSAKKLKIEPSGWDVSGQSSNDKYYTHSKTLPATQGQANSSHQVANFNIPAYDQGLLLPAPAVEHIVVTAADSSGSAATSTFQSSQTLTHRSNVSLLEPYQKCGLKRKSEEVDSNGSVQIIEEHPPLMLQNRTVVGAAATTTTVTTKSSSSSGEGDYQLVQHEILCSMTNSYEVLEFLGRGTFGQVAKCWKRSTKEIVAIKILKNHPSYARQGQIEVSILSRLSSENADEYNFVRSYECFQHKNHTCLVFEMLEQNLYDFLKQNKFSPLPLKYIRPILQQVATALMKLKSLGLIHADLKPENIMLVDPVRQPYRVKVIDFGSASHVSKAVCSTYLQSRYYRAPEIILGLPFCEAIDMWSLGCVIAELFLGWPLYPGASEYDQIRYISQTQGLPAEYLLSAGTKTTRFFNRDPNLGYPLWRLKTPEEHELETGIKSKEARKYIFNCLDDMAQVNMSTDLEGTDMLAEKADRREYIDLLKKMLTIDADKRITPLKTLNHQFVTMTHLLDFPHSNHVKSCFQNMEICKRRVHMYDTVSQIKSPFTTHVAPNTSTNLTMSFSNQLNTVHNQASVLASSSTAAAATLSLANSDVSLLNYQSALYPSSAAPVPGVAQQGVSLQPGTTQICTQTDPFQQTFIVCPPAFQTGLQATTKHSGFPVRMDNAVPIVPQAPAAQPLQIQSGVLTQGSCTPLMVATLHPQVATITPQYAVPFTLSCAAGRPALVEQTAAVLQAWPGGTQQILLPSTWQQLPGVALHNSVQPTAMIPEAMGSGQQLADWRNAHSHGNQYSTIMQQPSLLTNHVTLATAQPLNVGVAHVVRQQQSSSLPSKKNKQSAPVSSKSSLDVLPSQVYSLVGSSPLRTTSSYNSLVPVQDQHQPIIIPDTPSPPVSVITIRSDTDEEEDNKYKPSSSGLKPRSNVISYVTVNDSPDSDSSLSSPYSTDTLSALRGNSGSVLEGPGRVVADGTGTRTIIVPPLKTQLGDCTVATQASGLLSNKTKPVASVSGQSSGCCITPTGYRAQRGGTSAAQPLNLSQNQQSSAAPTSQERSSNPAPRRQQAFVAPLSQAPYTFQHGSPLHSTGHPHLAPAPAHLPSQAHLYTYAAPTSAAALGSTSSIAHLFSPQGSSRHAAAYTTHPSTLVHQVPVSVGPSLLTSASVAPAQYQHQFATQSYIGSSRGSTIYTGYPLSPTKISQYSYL
MYO3A (human), sequence (Q8NEV4 whole entry, looked up): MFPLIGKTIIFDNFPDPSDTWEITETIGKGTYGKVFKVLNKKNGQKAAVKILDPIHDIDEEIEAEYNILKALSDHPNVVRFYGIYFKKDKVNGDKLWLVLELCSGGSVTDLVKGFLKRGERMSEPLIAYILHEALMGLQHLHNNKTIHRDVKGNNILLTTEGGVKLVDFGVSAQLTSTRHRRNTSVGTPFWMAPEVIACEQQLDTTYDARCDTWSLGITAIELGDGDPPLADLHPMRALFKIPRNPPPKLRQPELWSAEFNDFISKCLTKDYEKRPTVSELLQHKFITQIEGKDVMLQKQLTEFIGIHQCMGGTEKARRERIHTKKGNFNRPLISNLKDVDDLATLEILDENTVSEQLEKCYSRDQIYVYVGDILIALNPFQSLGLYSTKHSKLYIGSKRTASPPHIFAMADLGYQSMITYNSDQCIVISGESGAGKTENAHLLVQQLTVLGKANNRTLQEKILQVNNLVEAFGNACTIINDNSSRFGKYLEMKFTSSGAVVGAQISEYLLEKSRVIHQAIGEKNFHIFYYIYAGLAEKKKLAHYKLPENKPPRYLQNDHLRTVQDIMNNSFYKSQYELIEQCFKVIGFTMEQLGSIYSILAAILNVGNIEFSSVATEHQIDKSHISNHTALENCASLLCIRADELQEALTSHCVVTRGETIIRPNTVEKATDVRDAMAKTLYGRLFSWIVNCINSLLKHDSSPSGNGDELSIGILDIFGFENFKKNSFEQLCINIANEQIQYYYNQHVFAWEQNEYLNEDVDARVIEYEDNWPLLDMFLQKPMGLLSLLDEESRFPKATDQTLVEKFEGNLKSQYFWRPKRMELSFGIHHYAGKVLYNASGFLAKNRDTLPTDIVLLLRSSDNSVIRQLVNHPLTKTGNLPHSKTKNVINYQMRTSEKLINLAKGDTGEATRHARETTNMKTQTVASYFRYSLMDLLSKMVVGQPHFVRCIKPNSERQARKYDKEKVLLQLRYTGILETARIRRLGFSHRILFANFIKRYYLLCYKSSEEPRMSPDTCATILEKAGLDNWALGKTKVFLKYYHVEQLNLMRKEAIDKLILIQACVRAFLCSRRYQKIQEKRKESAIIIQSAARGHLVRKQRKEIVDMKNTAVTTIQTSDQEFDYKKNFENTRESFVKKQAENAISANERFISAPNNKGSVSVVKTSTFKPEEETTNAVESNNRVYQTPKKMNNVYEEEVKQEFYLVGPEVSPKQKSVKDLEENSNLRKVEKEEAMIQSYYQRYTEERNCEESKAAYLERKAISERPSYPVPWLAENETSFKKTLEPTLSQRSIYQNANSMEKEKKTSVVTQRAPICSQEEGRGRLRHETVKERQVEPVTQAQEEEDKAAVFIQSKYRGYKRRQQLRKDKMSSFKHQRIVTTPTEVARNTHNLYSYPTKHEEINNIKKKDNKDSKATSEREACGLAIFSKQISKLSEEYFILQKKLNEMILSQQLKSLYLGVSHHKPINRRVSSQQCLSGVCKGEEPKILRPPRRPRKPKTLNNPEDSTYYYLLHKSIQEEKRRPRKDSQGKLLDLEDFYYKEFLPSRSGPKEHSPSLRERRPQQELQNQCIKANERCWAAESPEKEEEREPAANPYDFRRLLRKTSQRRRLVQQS
INSRR (human), sequence (P14616 whole entry, looked up): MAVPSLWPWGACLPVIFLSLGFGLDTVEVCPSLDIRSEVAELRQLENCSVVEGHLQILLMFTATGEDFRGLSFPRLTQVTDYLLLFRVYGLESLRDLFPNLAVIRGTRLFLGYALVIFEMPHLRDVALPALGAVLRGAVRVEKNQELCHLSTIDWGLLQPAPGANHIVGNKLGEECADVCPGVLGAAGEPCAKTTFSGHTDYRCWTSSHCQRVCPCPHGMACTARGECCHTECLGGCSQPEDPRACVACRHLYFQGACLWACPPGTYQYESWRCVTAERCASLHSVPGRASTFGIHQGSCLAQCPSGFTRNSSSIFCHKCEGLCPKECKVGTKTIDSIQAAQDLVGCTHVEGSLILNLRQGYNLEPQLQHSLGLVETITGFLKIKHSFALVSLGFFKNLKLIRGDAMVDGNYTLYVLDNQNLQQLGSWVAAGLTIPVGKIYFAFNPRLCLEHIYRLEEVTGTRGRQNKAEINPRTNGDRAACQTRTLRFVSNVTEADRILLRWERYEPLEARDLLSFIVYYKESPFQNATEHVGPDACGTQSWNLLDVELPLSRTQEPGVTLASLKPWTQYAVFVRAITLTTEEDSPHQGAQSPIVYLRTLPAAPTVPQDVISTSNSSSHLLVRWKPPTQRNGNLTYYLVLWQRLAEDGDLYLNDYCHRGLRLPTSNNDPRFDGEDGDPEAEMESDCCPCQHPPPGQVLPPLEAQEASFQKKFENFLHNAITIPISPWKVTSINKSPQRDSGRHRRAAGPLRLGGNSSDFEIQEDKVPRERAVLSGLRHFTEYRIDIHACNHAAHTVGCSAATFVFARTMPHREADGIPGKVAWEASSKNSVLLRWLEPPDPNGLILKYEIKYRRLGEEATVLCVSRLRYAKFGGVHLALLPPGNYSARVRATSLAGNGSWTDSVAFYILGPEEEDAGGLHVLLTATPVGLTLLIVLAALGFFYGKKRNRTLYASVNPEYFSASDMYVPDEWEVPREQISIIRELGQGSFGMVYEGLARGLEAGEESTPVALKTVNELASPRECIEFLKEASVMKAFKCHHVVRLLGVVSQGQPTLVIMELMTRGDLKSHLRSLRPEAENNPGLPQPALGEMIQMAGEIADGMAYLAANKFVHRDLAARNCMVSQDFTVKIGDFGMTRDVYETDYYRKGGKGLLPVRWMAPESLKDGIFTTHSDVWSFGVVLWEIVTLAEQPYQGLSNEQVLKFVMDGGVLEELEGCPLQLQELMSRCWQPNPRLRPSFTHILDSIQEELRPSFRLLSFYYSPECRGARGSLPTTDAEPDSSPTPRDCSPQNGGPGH
ACVRL1 (human), sequence (P37023 whole entry, looked up): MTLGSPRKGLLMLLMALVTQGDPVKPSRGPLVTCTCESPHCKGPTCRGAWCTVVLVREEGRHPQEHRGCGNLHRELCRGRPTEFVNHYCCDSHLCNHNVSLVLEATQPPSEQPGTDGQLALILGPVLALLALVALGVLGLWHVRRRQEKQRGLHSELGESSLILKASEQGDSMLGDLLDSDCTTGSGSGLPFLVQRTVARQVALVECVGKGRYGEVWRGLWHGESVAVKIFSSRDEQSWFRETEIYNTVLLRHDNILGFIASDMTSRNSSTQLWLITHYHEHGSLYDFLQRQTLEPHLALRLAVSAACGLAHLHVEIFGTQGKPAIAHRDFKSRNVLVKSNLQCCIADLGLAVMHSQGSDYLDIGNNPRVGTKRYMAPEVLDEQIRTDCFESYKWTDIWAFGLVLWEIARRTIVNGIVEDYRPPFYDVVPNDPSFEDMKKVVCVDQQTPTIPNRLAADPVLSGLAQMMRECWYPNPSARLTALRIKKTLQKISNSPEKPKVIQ

Row | Compound | kinase still bound, per cent of control [1] [%] | kinase still bound, per cent of control [2] [%] | kinase still bound, per cent of control [3] [%] | kinase still bound, per cent of control [4] [%] | kinase still bound, per cent of control [5] [%] | kinase still bound, per cent of control [9] [%] | kinase still bound, per cent of control [10] [%] | kinase still bound, per cent of control [11] [%] | kinase still bound, per cent of control [12] [%] | kinase still bound, per cent of control [13] [%] | kinase still bound, per cent of control [14] [%] | kinase still bound, per cent of control [15] [%] | kinase still bound, per cent of control [16] [%] | kinase still bound, per cent of control [17] [%] | other results
1 | O=C1NC(=O)/C(=C/c2c[nH]c(=O)c(-c3ccc(N4CCNCC4)nc3)c2)S1 | 100 | 54 | 24 | 19 | 7.8 | 62 | 86 | 94 | 15 | 53 | 46 | 90 | 90 | 21 | pKd [6]: 8.06; pKd [7]: 6.60; pKd [8]: 8.02; pIC50 [18]: 6.87; pIC50 [19]: 7.13
2 | N=C1NC(=O)/C(=C/c2ccc(-c3csc4ccccc34)o2)S1 |  | 32 |  |  |  |  |  |  |  |  |  |  |  |  | pIC50 [20]: 5.49; pIC50 [21]: 6.20
3 | COc1cc(N2CCC(O)CC2)ccc1Nc1ncc2c(n1)N1CCc3cccc(c31)C(=O)N2C | 100 | 36 | 100 | 100 | 80 | 92 | 78 | 96 | 99 | 66 | 54 | 83 | 84 | 78 | 
4 | CN1C(=O)c2ccccc2N(C)c2nc(Nc3ccc(N4CCC(O)CC4)cc3)ncc21 | 100 | 100 | 88 | 78 | 86 | 87 | 96 | 97 | 100 | 45 | 85 | 100 | 27 | 16 | kinase still bound, per cent of control [22]: 94%; kinase still bound, per cent of control [23]: 100%
5 | N=C1NC(=O)/C(=C/c2ccc(-c3cncc4ccccc34)o2)S1 |  |  |  |  | 10 |  |  |  |  |  | 24 |  | 25 |  | pIC50 [24]: 7.54; pIC50 [25]: 6.81
6 | CN1CCN(c2ccc(C(=O)Nc3ncc4c(n3)N(C)c3ccccc3C(=O)N4C)cc2)CC1 | 98 | 100 | 100 | 100 | 100 | 100 | 100 | 100 | 90 | 100 | 100 | 99 | 82 | 78 | 
7 | N=C1NC(=O)/C(=C/c2c[nH]c(=O)c(-c3ccc(N4CCNCC4)nc3)c2)S1 |  |  |  |  |  |  |  |  |  |  |  |  |  | 33 | pIC50 [18]: 6.29; pIC50 [19]: 6.54
8 | CN1C(=O)c2ccccc2N(C)c2nc(NS(=O)(=O)c3ccc(N)cc3)ncc21 | 100 | 100 | 100 | 100 | 100 | 100 | 100 | 100 | 100 | 100 | 100 | 100 | 87 | 85 | 
9 | CS(=O)(=O)Nc1ccc(-c2cncc(/C=C3\SC(=N)NC3=O)c2)cc1 | 3.6 |  |  |  |  |  |  |  |  | 32 |  | 9.4 | 17 |  | kinase still bound, per cent of control [22]: 32%; kinase still bound, per cent of control [23]: 34%
10 | COc1cc(N2CCN(C)CC2)ccc1Nc1ncc2c(n1)Nc1ccccc1NC2=O | 81 | 53 | 83 | 100 | 90 | 97 | 41 | 100 | 95 | 100 | 80 | 82 | 100 | 100 | 
11 | O=C1NC(=S)S/C1=C\c1ccc(-c2cncc3ccccc23)o1 |  | 30 |  |  | 22 |  |  |  |  |  | 19 |  |  |  | pIC50 [20]: 6.55; pIC50 [21]: 7.04
12 | CN1C(=O)[C@H]2CCC[C@H]2N(C2CCCC2)c2nc(Nc3ccc(C(N)=O)cc3)ncc21 |  |  | 13 | 23 |  |  |  |  |  |  |  |  |  |  | 
13 | N=C1NC(=O)/C(=C/c2ccc(-c3ccc(C(N)=O)cc3O)o2)S1 |  |  |  |  | 28 |  |  |  |  |  |  |  |  |  | pIC50 [20]: 7.49; pIC50 [21]: 7.24
14 | CS(=O)(=O)Nc1ccc(-c2ncc(/C=C3\SC(=N)NC3=O)s2)cc1 |  |  |  |  |  |  |  |  |  |  |  |  |  | 33 | 
15 | CSC1=NC(=O)/C(=C/c2c[nH]c(=O)c(-c3ccc(NS(C)(=O)=O)cc3)c2)S1 |  |  |  |  |  |  |  |  |  |  |  |  |  | 23 | pIC50 [18]: 5.71; pIC50 [19]: 6.21
16 | N=C1NC(=O)/C(=C/c2ccc(-c3ccccc3O)o2)S1 |  |  |  |  |  |  |  |  |  |  |  |  |  |  | pIC50 [20]: 7.03; pIC50 [21]: 6.94
17 | N=C1NC(=O)/C(=C/c2ccc(-c3ccc(F)cc3O)o2)S1 |  |  |  |  |  |  |  |  |  |  |  |  |  |  | pIC50 [20]: 6.96; pIC50 [21]: 7.02
18 | Nc1cccc(-c2cc(/C=C3\SC(=O)NC3=O)c[nH]c2=O)c1 |  |  |  | 29 |  | 29 |  |  |  |  |  |  |  |  | pIC50 [18]: 6.61; pIC50 [19]: 6.78
19 | CS(=O)(=O)Nc1ccc(-c2cc(/C=C3\SC(=N)NC3=O)c[nH]c2=O)cc1 |  |  |  |  |  |  |  |  |  |  |  |  | 15 |  | pIC50 [18]: 5.94; pIC50 [19]: 6.52
20 | COc1cc(N2CCN(C)CC2)ccc1Nc1ncc2c(n1)N(C)c1ccccc1N(C)C2=O | 100 | 11 | 95 | 100 | 75 | 100 | 55 | 95 | 100 | 100 | 74 | 92 | 98 | 100 | 
21 | COc1cc(N2CCN(C)CC2)ccc1Nc1ncc2c(n1)N(C)c1sccc1C(=O)N2C | 99 | 44 | 75 | 100 | 44 | 100 | 96 | 100 | 77 | 79 | 59 | 81 | 69 | 6.5 | 
